The record followed here is patent publication US8367079B2, “Liquid preservative compositions” (Rhodia Operations, priority 2008, dated 2013).

Assay type in all cases: cell-based
One test concerns A. niger 16404. The test can be described thus: Minimum Inhibitory Concentration (MIC) evaluation, broth dilution. As to conditions: Mueller-Hinton broth, two-fold dilutions, about 35° C. for about 24 hours, visible growth. On the procedure:
(§1) In this evaluation, nutrient broth solutions were made with different concentrations of the test compounds, and then all the solutions were spiked with the same concentration of test organism. Growth was indicated by a solution becoming hazy after 24 hours of incubation time. The highest dilution without observable growth is the Minimal Inhibitory Concentration (MIC).
(§2) The following procedure was adopted from the Manual of Clinical Microbiology, 2nd Ed. published by the American Society for Microbiology, ISBN 0-914826-00-X.
(§3) Prepare and sterilize Mueller-Hinton Broth (MH broth) (Fluka) per the manufacturer's instructions (dissolve 23 grams in one liter water and autoclave at 121° C. for 15 minutes minimum).
(§4) The stock antimicrobial solution is diluted (in MH broth) to twice the highest final test concentration desired. Sterile 13×100 mm screw-capped culture tubes are used. Two-fold dilutions are made directly in the tubes. To the first tube is added 2 mL of the working solution of antimicrobial agent. To each remaining tube is added 1 mL of broth. Using aseptic technique, an amount of 1 mL is transferred from the first tube to the second tube and is thoroughly mixed. After thorough mixing, 1 mL is transferred from the second tube to the third tube. This process is repeated through the second to last tube, from which 1 mL is removed and discarded. The final tube receives no antimicrobial agent and serves as a growth control.
(§5) Buffered saline (3.5 g/L phosphoric acid in a 0.9% NaCl solution, pH adjusted to 7.2 with 50 wt. % aqueous NaOH, sterilized by autoclave).
(§6) The organisms are preferably lyophilized Microbiologics E^power E7 microorganisms (mean assay value of between 10 million and 100 million colony forming units or equivalent concentration). The final concentrations of the microorganism in the inoculum should be in the order of 10^6-10^7 cfu/mL.
(§7) 1. Allow unopened vial of microorganism pellets to equilibrate to room temperature.
(§8) 2. Warm 1 tube of 10 mL buffered saline per organism used to about 35-37° C.
(§9) 3. Using sterile forceps, transfer 2 pellets to the saline and return unused pellets to storage.
(§10) 4. Incubate the hydrated material at about 35-37° C. for about 30 minutes.
(§11) 5. Vortex the vials until homogeneous.
(§12) 6. Add 1.0 ml of the diluted culture suspension to each of the previously prepared tubes containing the preservative compositions. The final concentration of preservative is now one-half of the original concentration in each tube.
(§13) All tubes were incubated at about 35° C. for about 24 hours. The tubes were then examined for visible signs of bacterial growth.
(§14) The MIC values from Table 5 were then used to calculate the Fractional Inhibitory Concentration Index (FICI) (sometimes called the Synergy Index) of GCM and GCP versus the various individual test organisms using the following equation. FICI=(MICa/MICA)+(MICb/MICB)

Another test deals with S. aureus 6538. The test is described as above. As to conditions: Mueller-Hinton broth, two-fold dilutions, about 35° C. for about 24 hours, visible growth. On the procedure: as §1, §2, §3, §4, §5, §6, §7, §8, §9, §10, §11, §12, §13, §14
In another test the test system is P. aeruginosa 9027. The description is as above. As to conditions: Mueller-Hinton broth, two-fold dilutions, about 35° C. for about 24 hours, visible growth. On the procedure: as §1, §2, §3, §4, §5, §6, §7, §8, §9, §10, §11, §12, §13, §14
In a further test the test system is Candida albicans. The test can be described thus: Preservative challenge test in cleanser base, plate count. Particulars: inoculum about 1×10^5 to 1×10^6 cfu/mL, about 22° C.; for Day-7 Plate Count, CA: 7 days after challenge; for Day-14 Plate Count, CA: 14 days after challenge, TN = too numerous to count. The protocol:
(§15) Several 200-gram samples of a cleanser base were admixed with a variety of preservative compositions, and challenged with selected bacteria and fungi (Escherichia coli, Pseudomonas aeruginosa, Staphylococcus aureus, Aspergillus niger, and Candida albicans) according to the following procedure:
(§16) About 0.5 mL of an aqueous suspension containing about 1×10^6 to about 2×10^7 colony forming units-per-milliliter (cfu/mL) of Aspergillus niger in a pH 7.2 phosphate buffer was transferred to a tube containing about 9.5 mL of a sample of a cleanser base composition to provide an inoculum level of about 1×10^5 to about 1×10^6 cfu/mL. The same procedure was used to challenge samples of the cleanser base with Candida albicans and with a mixed culture of Escherichia coli, Pseudomonas aeruginosa, and Staphylococcus aureus, at about the same inoculum levels. The challenged samples were stored at an ambient room temperature of about 22° C. At 7 days and 14 days after challenge, aliquots from each sample were diluted according to the following procedure: about 1 mL of each challenged sample was aseptically transferred into a tube containing about 9 mL of Dey/Engley (D/E) neutralizing broth with thorough mixing to provide a dilution ratio of about 1:10. About […] of each of the 1:10 diluted samples was then aseptically transferred into separate tubes, each tube containing about 9 mL of sterile buffered saline solution, (3.5 g/L phosphoric acid in 0.9 wt. % NaCl solution, adjusted to pH 7.2 with 50 wt. % aqueous sodium hydroxide), with thorough mixing, to provide a dilution ratio of about 1:1000.
(§17) Finally, each of the 1:10 diluted samples and each of the 1:1000 diluted samples were plated according to the following procedure: about 1 mL of each of the diluted samples was plated with Letheen agar (bacteria samples) or Sabouraud dextrose agar (yeast and mold samples). The Letheen agar plates were incubated at 35±2° C. for about 48 hours (about 2 days) in an inverted position, and the resulting microbial colonies were counted. The Sabouraud dextrose agar plates were incubated at 25±2° C. for about 120 hours (about 5 days) in an upright position and the resulting microbial colonies were counted.
(§18) The formulations of the cleanser base and the D/E Neutralizing Broth used in these evaluations are provided in Table 1 and Table 2, respectively.

The subject of a further test is Pseudomonas aeruginosa. The description is as above. As to conditions: inoculum about 1×10^5 to 1×10^6 cfu/mL, about 22° C., TN = too numerous to count; for Day-7 Plate Count, PA: 7 days after challenge; for Day-14 Plate Count, PA: 14 days after challenge. On the procedure:
as §15, §16, §17, §18

The next test concerns Aspergillus niger. The test is described as above. As to conditions: inoculum about 1×10^5 to 1×10^6 cfu/mL, about 22° C.; for Day-7 Plate Count, AN: 7 days after challenge; for Day-14 Plate Count, AN: 14 days after challenge. The protocol:
as §15, §16, §17, §18

The next test relates to Staphylococcus aureus. Described as above. Particulars: inoculum about 1×10^5 to 1×10^6 cfu/mL, about 22° C.; for Day-7 Plate Count, SA: 7 days after challenge; for Day-14 Plate Count, SA: 14 days after challenge. On the procedure: as §15, §16, §17, §18
A further test deals with Escherichia coli. Described as above. Particulars: inoculum about 1×10^5 to 1×10^6 cfu/mL, about 22° C., TN = too numerous to count; for Day-7 Plate Count, EC: 7 days after challenge; for Day-14 Plate Count, EC: 14 days after challenge. On the procedure:
as §15, §16, §17, §18

As for `CCCCCCCC(=O)OCC(O)CO` (centres unmarked) [GC, glyceryl caprylate], the “MIC Values, A. niger” value with A. niger 16404 is reported as 2.0%. In the test on S. aureus 6538, the “MIC Values, S. aureus” value is given as 1.0%. Besides, the “MIC Values, P. aeruginosa” value with P. aeruginosa 9027 came to 1.0%.

For the compound `Cn1sccc1=O` [MI, 2-methyl-4-isothiazolin-3-one], the “MIC Values, A. niger” value with A. niger 16404 was found to be 0.1%. The “MIC Values, S. aureus” value with S. aureus 6538 is 0.1%. For the same compound, the “MIC Values, P. aeruginosa” value in the test on P. aeruginosa 9027 amounted to 0.008%.

For `Cn1sccc1=O` [Ex. B, 2-methyl-4-isothiazolin-3-one], in the test with Candida albicans, the “Day-7 Plate Count, CA” value was determined as 10500 cfu and the “Day-14 Plate Count, CA” value came out at 15000 cfu. In the test on Pseudomonas aeruginosa, the “Day-7 Plate Count, PA” value is 115 cfu and the “Day-14 Plate Count, PA” value is <10 cfu. In the test with Aspergillus niger, the “Day-7 Plate Count, AN” value came out at 1000 cfu and the “Day-14 Plate Count, AN” value worked out at 500 cfu. In the test with Staphylococcus aureus, the “Day-7 Plate Count, SA” value stood at 215 cfu and the “Day-14 Plate Count, SA” value worked out at 6500 cfu. In addition, in the test with Escherichia coli, the “Day-7 Plate Count, EC” value came to 155 cfu and the “Day-14 Plate Count, EC” value was found to be 10 cfu.

For `CCCCCCCC(=O)OCC(O)CO` (centres unmarked) [Ex. C, glyceryl caprylate], in the test on Candida albicans, the “Day-7 Plate Count, CA” value is recorded as 500 cfu and the “Day-14 Plate Count, CA” value stood at 485 cfu. In addition, in the test with Pseudomonas aeruginosa, the “Day-7 Plate Count, PA” value is 7500 cfu and the “Day-14 Plate Count, PA” value came out at 117500 cfu. Besides, in the test with Aspergillus niger, the “Day-7 Plate Count, AN” value stood at 1000 cfu and the “Day-14 Plate Count, AN” value is 280 cfu. In the test with Staphylococcus aureus, the “Day-7 Plate Count, SA” value is <10 cfu and the “Day-14 Plate Count, SA” value came to 1000 cfu. Moreover, in the test with Escherichia coli, the “Day-7 Plate Count, EC” value is on record as 15 cfu and the “Day-14 Plate Count, EC” value was determined as 10 cfu.

For the compound `OCCc1ccccc1` [Ex. D, phenethyl alcohol], in the test on Candida albicans, the “Day-7 Plate Count, CA” value came to 91000 cfu and the “Day-14 Plate Count, CA” value worked out at 2000 cfu. In the test with Pseudomonas aeruginosa, the “Day-7 Plate Count, PA” value is reported as 10 cfu and the “Day-14 Plate Count, PA” value was determined as 1000 cfu. In the test on Aspergillus niger, the “Day-7 Plate Count, AN” value came to 25 cfu and the “Day-14 Plate Count, AN” value is <10 cfu. Besides, in the test on Staphylococcus aureus, the “Day-7 Plate Count, SA” value stood at 7500 cfu and the “Day-14 Plate Count, SA” value stood at 1000 cfu. For the same compound, in the test with Escherichia coli, the “Day-7 Plate Count, EC” value came to 380 cfu and the “Day-14 Plate Count, EC” value worked out at 1000 cfu.

In the case of `OCCc1ccccc1` [PEA, phenethyl alcohol], the “MIC Values, A. niger” value with A. niger 16404 is 1.0%. The “MIC Values, S. aureus” value in the test on S. aureus 6538 worked out at 0.9%. Besides, in the test with P. aeruginosa 9027, the “MIC Values, P. aeruginosa” value worked out at 0.9%.

Regarding `O=C([O-])c1ccccc1.[Na+]` [Ex. E, sodium benzoate], the “Day-7 Plate Count, CA” value with Candida albicans is listed as 336500 cfu. In the test on Aspergillus niger, the “Day-7 Plate Count, AN” value is 1500 cfu and the “Day-14 Plate Count, AN” value was found to be 3500 cfu. Moreover, in the test with Staphylococcus aureus, the “Day-7 Plate Count, SA” value came out at 9000 cfu and the “Day-14 Plate Count, SA” value is reported as 500 cfu.
